Legend:
[1] = biological target: Interferon-induced, double-stranded RNA-activated protein kinase (Homo sapiens) (UniProt P19525); test: Selectivity interaction (KinomeScan (DiscoverX)) EUB0000666a EIF2AK2; details: at 10 µM
[2] = biological target: Fibroblast growth factor receptor 4 (Homo sapiens, UniProt P22455); test: Selectivity interaction (KinomeScan (DiscoverX)) EUB0000666a FGFR4; details: at 10 µM
[3] = system: eIF-2-alpha kinase GCN2 (Homo sapiens), Q9P2K8 [S808G]; test: Selectivity interaction (KinomeScan (DiscoverX)) EUB0001079a EIF2AK4; details: at 1 µM
eIF-2-alpha kinase GCN2 (Homo sapiens), Q9P2K8 [S808G], sequence (Q9P2K8 whole entry S808G): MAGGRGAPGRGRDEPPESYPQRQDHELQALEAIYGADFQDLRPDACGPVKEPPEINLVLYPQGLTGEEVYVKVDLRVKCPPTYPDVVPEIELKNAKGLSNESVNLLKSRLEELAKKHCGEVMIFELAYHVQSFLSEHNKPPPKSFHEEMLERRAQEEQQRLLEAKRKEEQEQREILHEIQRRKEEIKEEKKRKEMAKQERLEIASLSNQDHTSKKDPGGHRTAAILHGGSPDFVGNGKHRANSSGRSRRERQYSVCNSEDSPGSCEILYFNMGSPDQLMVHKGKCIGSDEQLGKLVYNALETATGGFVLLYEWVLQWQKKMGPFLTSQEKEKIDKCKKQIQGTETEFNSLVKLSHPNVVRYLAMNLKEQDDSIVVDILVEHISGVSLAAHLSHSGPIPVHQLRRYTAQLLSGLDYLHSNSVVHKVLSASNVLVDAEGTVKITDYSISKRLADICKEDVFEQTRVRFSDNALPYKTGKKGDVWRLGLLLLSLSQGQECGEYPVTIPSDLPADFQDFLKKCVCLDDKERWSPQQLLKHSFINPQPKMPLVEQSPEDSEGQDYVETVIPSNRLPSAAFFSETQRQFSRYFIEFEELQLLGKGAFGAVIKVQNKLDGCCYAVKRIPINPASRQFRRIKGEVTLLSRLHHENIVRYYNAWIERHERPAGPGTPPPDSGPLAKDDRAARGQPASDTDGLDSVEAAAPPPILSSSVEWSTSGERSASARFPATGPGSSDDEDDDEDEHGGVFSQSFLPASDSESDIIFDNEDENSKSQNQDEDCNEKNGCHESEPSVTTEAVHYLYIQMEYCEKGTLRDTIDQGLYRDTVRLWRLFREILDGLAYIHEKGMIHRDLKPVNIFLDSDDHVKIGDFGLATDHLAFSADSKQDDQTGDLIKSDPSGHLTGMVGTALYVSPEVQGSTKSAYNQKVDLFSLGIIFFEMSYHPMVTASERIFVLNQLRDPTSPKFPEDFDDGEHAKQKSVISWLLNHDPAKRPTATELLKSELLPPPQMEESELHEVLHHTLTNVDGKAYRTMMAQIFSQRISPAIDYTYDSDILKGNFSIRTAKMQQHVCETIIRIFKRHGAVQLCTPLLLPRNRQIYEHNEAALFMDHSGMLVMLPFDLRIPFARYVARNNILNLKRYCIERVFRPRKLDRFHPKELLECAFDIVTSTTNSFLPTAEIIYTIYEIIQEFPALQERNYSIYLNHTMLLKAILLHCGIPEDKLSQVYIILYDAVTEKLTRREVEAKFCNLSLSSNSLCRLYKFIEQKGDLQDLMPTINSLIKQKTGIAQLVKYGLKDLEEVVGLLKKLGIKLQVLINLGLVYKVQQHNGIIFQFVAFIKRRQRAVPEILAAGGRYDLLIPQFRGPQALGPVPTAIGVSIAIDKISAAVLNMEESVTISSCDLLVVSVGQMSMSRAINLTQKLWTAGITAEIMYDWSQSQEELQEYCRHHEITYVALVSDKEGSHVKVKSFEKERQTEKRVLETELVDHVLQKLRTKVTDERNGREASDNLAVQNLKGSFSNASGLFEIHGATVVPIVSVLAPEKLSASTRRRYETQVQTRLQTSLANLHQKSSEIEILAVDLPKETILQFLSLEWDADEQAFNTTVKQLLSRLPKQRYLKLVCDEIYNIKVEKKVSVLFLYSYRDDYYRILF

[4] = biological target: T1, Serine/threonine-protein kinase DCLK1 (Homo sapiens) (UniProt O15075); test: Selectivity interaction (Kinase panel (DSF assay)) EUB0001559a DCLK1
T1 sequence (whole entry): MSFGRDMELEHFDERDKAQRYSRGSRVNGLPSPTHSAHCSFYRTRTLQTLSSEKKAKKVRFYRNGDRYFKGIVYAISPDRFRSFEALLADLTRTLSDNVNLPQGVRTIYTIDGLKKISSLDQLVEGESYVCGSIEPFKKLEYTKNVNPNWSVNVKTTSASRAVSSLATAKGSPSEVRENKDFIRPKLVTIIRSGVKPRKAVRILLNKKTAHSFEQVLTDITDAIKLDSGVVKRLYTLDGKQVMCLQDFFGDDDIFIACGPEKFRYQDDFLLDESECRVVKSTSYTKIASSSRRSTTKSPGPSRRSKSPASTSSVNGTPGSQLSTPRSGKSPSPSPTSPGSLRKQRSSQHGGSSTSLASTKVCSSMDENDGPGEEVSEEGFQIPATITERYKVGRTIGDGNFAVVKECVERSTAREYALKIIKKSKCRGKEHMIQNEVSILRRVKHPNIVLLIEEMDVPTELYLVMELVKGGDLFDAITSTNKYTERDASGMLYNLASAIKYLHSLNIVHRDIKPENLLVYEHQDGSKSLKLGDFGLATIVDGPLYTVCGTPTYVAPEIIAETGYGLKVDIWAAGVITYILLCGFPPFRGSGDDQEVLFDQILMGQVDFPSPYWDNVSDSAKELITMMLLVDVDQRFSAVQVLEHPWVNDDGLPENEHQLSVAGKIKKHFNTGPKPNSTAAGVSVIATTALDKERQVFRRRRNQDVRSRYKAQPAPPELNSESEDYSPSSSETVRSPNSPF

[5] = biological target: T2, Serine/threonine-protein kinase BRSK1 (Homo sapiens) (UniProt Q8TDC3); details: at 10 µM
T2 sequence (whole entry): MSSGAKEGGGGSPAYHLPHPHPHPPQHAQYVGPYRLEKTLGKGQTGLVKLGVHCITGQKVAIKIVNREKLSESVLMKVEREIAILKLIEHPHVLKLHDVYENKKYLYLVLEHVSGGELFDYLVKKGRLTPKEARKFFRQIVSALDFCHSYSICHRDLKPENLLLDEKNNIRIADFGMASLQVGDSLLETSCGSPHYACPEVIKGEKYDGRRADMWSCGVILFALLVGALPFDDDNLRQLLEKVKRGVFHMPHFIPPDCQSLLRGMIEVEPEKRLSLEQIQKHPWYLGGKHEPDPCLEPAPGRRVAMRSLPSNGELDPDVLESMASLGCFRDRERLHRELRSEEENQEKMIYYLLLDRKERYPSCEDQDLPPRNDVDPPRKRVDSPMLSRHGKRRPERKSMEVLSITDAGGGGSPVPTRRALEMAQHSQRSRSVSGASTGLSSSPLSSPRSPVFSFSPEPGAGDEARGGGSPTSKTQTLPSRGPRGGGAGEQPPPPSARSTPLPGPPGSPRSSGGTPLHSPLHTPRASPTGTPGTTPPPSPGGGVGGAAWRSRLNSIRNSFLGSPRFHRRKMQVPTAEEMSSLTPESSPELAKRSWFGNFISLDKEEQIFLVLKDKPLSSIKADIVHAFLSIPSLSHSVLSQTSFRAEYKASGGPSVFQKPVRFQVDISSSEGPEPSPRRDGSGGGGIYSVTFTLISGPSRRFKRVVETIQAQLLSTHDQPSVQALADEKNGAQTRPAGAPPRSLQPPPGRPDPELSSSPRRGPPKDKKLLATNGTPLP

[6] = biological target: Serine/threonine-protein kinase MRCK beta (Homo sapiens) (UniProt Q9Y5S2); test: Selectivity interaction (KinomeScan (DiscoverX)) EUB0000092b CDC42BPB; details: at 10 µM
Serine/threonine-protein kinase MRCK beta (Homo sapiens), sequence (Q9Y5S2 whole entry): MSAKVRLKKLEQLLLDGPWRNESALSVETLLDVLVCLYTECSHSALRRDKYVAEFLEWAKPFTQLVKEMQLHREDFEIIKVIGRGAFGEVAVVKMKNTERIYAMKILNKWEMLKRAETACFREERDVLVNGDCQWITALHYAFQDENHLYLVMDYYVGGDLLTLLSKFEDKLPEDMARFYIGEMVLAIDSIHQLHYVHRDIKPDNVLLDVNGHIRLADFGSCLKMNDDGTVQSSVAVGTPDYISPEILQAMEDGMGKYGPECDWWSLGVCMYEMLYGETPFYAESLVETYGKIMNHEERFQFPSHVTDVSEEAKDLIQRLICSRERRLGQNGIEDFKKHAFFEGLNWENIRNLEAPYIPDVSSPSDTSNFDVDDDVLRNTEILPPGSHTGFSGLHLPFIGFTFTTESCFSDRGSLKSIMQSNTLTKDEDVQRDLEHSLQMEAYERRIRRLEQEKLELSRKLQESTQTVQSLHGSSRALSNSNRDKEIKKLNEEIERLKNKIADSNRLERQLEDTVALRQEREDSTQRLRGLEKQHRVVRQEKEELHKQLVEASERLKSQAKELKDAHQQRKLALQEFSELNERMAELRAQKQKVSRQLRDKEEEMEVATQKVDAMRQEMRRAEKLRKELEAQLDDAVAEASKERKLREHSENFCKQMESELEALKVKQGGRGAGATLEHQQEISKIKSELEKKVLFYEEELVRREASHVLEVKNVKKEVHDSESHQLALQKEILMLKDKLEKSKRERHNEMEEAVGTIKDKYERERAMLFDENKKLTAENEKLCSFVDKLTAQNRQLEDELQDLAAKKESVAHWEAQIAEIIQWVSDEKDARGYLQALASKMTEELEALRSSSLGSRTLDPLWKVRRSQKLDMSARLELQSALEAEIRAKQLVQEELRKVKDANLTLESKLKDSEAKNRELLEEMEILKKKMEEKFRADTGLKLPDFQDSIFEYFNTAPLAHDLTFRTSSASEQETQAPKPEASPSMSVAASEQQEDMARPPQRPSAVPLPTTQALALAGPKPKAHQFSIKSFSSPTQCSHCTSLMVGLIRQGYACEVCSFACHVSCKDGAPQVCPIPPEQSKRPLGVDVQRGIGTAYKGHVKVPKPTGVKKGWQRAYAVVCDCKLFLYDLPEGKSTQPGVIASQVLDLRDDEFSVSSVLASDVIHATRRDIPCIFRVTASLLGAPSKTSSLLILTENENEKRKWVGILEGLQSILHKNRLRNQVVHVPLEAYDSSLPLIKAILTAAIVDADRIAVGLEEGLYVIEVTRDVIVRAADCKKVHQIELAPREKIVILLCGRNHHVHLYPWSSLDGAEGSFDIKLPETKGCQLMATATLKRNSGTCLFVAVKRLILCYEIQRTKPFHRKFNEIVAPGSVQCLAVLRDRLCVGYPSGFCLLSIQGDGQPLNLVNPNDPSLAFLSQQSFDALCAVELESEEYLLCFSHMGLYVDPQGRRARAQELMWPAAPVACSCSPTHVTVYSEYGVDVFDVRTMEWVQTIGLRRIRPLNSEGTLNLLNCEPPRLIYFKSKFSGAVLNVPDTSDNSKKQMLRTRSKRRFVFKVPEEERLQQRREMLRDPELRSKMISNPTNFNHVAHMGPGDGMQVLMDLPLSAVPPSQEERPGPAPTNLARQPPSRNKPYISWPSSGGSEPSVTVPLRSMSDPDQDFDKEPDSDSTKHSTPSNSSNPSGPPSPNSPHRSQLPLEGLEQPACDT

[7] = biological target: Homeodomain-interacting protein kinase 3 (Homo sapiens, UniProt Q9H422); test: Selectivity interaction (KinomeScan (DiscoverX)) EUB0000045b HIPK3
Homeodomain-interacting protein kinase 3, sequence (Q9H422 whole entry, looked up): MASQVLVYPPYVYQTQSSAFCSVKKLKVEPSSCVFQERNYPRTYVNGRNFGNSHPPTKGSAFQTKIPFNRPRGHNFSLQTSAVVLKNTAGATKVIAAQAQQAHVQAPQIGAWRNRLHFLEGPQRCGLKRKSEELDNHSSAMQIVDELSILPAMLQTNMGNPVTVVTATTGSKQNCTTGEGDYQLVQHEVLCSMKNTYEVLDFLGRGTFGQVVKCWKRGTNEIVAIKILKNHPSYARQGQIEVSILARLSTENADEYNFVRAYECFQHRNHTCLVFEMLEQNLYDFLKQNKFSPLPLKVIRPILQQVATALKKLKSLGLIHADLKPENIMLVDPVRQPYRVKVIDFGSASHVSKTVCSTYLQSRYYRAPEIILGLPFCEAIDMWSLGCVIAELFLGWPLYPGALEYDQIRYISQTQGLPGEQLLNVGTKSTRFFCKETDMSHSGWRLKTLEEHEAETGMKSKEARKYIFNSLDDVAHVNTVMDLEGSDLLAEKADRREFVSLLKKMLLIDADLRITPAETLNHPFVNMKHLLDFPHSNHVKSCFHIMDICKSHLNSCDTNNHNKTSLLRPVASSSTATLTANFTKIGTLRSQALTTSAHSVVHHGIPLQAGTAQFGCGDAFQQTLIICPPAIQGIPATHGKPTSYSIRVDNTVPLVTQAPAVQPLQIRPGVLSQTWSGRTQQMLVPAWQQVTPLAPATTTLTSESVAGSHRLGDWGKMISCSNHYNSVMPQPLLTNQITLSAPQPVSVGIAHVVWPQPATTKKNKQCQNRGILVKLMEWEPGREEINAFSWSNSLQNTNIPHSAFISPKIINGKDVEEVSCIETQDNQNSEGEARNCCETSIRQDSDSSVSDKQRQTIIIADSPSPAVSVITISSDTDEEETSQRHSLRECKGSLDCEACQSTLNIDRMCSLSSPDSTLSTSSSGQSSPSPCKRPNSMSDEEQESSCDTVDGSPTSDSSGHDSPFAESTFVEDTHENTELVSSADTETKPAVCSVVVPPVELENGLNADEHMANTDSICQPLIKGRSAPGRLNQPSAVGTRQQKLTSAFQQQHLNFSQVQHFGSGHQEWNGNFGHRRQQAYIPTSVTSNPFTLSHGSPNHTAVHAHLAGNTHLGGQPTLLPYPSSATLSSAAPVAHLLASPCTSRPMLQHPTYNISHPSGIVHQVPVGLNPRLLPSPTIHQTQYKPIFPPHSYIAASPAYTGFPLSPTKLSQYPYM

[8] = system: eIF-2-alpha kinase GCN2 (Homo sapiens), Q9P2K8 [S808G]; details: at 10 µM
[9] = biological target: T3, Serine/threonine-protein kinase NLK (Homo sapiens) (UniProt Q9UBE8); test: Selectivity interaction (KinomeScan (DiscoverX)) EUB0000655a NLK; details: at 10 µM
T3 sequence (whole entry): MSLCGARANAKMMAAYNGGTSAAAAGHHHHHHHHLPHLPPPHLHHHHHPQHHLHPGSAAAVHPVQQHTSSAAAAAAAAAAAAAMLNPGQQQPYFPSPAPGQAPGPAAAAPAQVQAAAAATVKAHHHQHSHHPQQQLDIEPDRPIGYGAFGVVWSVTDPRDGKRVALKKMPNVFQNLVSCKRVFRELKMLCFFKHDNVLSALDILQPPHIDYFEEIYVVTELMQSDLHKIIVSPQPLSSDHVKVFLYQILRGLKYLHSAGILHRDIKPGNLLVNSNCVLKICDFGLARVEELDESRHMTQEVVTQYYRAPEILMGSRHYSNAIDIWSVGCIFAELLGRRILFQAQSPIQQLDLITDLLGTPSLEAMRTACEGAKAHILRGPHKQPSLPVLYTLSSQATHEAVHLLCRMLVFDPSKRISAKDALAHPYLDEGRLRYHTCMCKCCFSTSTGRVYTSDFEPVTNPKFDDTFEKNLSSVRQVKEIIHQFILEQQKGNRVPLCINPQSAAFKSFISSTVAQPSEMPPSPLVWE

[10] = biological target: Calcium/calmodulin-dependent protein kinase type II subunit beta (Homo sapiens) (UniProt Q13554); test: Selectivity interaction (SelectScreen profiling (Invitrogen)) EUB0000607a CAMK2B; details: at 2 µM
[11] = biological target: Serine/threonine-protein kinase pim-3 (Homo sapiens) (UniProt Q86V86); test: Selectivity interaction (KinomeScan (DiscoverX)) EUB0000607a PIM3; details: at 10 µM
[12] = biological target: Serine/threonine-protein kinase Chk2 (Homo sapiens) (UniProt O96017); test: Selectivity interaction (Kinase panel (Z-LYTE Assay)) EUB0001632a CHEK2; details: at 10 µM

SMILES: O=C(NOC[C@H](O)CO)c1ccc(F)c(F)c1Nc1ccc(I)cc1F
- % of control [1]: 100%
- % of control [2]: 54%

SMILES: Nc1cnc(N2CCc3cc(S(=O)(=O)Nc4c(F)cc(Cl)cc4F)cc(N4CCCC4=O)c32)nc1 [TP-020n]
- % of control [3]: 100%

SMILES: CN(C(=O)c1cnn2cccnc12)c1cc2c(cc1N1CCOCC1)C(=O)N(C[C@@H](F)C(C)(C)O)C2
- dTM [4]: 0.8 K

SMILES: COCC(=O)NC/C=C/c1ccc2ncnc(Nc3ccc(Oc4ccc(C)nc4)c(C)c3)c2c1 [CP-724714]
- % of control [5]: 100%

SMILES: CCC(=O)N1CCN(c2ccc(-n3c(=O)ccc4cnc5ccc(-c6cnc7ccccc7c6)cc5c43)cc2C(F)(F)F)CC1
- % of control [6]: 3.4%

SMILES: C=CC(=O)Nc1cc(-n2c(=O)ccc3cnc4ccc(-c5ccc(NS(C)(=O)=O)cc5)cc4c32)ccc1C
- % of control ([7]; at 1 µM): 100%
- % of control ([7]; at 10 µM): 100%

SMILES: Cc1cc([C@@H](C)Nc2ccccc2C(=O)O)c2nc(N3CCOCC3)cc(=O)n2c1 [AZD-6482]
- % of control [8]: 100%

SMILES: CN(C)CCOc1ccc(-c2nc(-c3ccncc3)c(-c3ccc4c(c3)CC/C4=N\O)[nH]2)cc1
- % of control [9]: 90%

SMILES: CNC(=O)Nc1ccc(-c2nc(N3CC4CCC(C3)O4)c3cnn(C4CCC5(CC4)OCCO5)c3n2)cc1
- % of inhibition [10]: 8%
- % of control [11]: 100%

SMILES: Cn1cc(-n2cnc3c(NCc4nc5cc(Cl)c(Cl)cc5[nH]4)nc(N4CCOCC4)nc32)cn1
- % of control [12]: 12.8%
